Legend:
fecal calprotectin = assay: Phase IIa trial CD-LAQ-201: changes in fecal calprotectin levels; assay type: in vivo, human; settings: for % of patients with a calprotectin decrease from ≧250 μg/g to below 250 μg/g & greater than 50% reduction: Week 8
Description: As used herein, “calprotectin” is a calcium and zinc binding anti-microbial protein released by granulocytes. This protein can be detected in stool and its concentration reflects the number of polymorphonuclear leukocytes (PMN), migrating into the gut lumen. It is therefore considered a bio-marker for intestinal inflammation. […] Proportion of subjects in clinical remission (total CDAI score <150) at weeks 4, 6, 8 and 12 (and were not treatment failures). • 2. Proportion of subjects who respond to treatment (decrease from baseline of at least 100 points in CDAI score ore remission) at week 4, 6, 8 and 12. • 3. Time to remission. • 4. Time to response. • 5. C-Reactive Protein (CRP) change from baseline at weeks 2, 4, 6, 8 and 12. • 6. Fecal calprotectin change from baseline to weeks 2, 4, 6, 8 and 12. • 7. Proportion of subjects with a decrease from baseline of at least 50% in the number of open draining fistulas.

[1] = in vivo; cited from earlier work
[2] = Previous pharmacokinetic studies of laquinimod; assay type: in vivo; settings: loading dose regimen (double dose on first two days)
Description: In order to decrease thee time to steady state and potentially decrease time to response, a loading dose regimen described below was used to allow steady state levels to be reached in approximately 6-7 days.

[3] = test system: Moderate to severe Crohn's disease (CD) subjects; assay: Phase IIa trial CD-LAQ-201: safety/tolerability (adverse events); assay type: in vivo, human
Description: Safety/Tolerability • 1. Adverse events (AEs). • 2. Clinical laboratory values. • 3. Vital signs. • 4. ECG. • 5. Proportion of subjects who prematurely discontinue treatment. • 6. Proportion of subjects who prematurely discontinue treatment due to AEs. • 7. Time to premature treatment discontinuation. • 8. Time to premature treatment discontinuation due to AEs.

SMILES: CCN(C(=O)c1c(O)c2c(Cl)cccc2n(C)c1=O)c1ccccc1 [laquinimod]
- % Change from Baseline in fecal calprotectin level at Week 8, Mean ± SD (fecal calprotectin; Laq 0.5 mg): 25.5 ± 132.93%
- % Change from Baseline in fecal calprotectin level at Week 8, Median (fecal calprotectin; Laq 0.5 mg): −23.1%
- % of patients with a calprotectin decrease from ≧250 μg/g to below 250 μg/g & greater than 50% reduction (fecal calprotectin; Laq 0.5 mg): 38.9%
- % Change from Baseline in fecal calprotectin level at Week 8, Mean ± SD (fecal calprotectin; Laq 1.0 mg): 0.2 ± 91.55%
- % Change from Baseline in fecal calprotectin level at Week 8, Median (fecal calprotectin; Laq 1.0 mg): −14.4%
- % of patients with a calprotectin decrease from ≧250 μg/g to below 250 μg/g & greater than 50% reduction (fecal calprotectin; Laq 1.0 mg): 38.9%
- % Change from Baseline in fecal calprotectin level at Week 8, Mean ± SD (fecal calprotectin; Laq 1.5 mg): 13.9 ± 108.97%
- % Change from Baseline in fecal calprotectin level at Week 8, Median (fecal calprotectin; Laq 1.5 mg): −18.7%
- % of patients with a calprotectin decrease from ≧250 μg/g to below 250 μg/g & greater than 50% reduction (fecal calprotectin; Laq 1.5 mg): 26.7%
- % Change from Baseline in fecal calprotectin level at Week 8, Mean ± SD (fecal calprotectin; Laq 2.0 mg): 44.3 ± 198.71%
- % Change from Baseline in fecal calprotectin level at Week 8, Median (fecal calprotectin; Laq 2.0 mg): −20.1%
- % of patients with a calprotectin decrease from ≧250 μg/g to below 250 μg/g & greater than 50% reduction (fecal calprotectin; Laq 2.0 mg): 36.4%
- effect on fecal calprotectin (fecal calprotectin; all doses (0.5-2 mg/day)): reduced fecal calprotectin
- objective measures of intestinal inflammation in active CD (fecal calprotectin; all doses (LAQ 0.5-2 mg/day)): reduce objective measures of intestinal inflammation
- percentage of patients with fecal calprotectin ≧250 μg/g at baseline showing at least a 50% reduction and levels <250 μg/g at Week 8 (fecal calprotectin; laquinimod groups (all doses), pooled placebo 13.6%): 26.7-38.9%
- oral bioavailability [1]: high
- time to steady state levels [2]: 6 to 7 days
- dose response relationship for the overall incidence of AEs ([3]; 0.5-2.0 mg/day): no apparent dose response relationship
- Common Adverse Events: Abdominal Distension ([3]; Laq 0.5 mg (N = 29)): 10.3%
- Common Adverse Events: Abdominal Pain ([3]; Laq 0.5 mg (N = 29)): 17.2%
- Common Adverse Events: Abdominal Pain Upper ([3]; Laq 0.5 mg (N = 29)): 3.4%
- Common Adverse Events: Alanine Aminotransferase Increased ([3]; Laq 0.5 mg (N = 29)): 0%
- Common Adverse Events: Asthenia ([3]; Laq 0.5 mg (N = 29)): 3.4%
- Common Adverse Events: Back Pain ([3]; Laq 0.5 mg (N = 29)): 10.3%
- Common Adverse Events: Cough ([3]; Laq 0.5 mg (N = 29)): 6.9%
- Common Adverse Events: Crohn's Disease^a ([3]; Laq 0.5 mg (N = 29)): 6.9%
- Common Adverse Events: Diarrhoea ([3]; Laq 0.5 mg (N = 29)): 20.7%
- Common Adverse Events: Dizziness ([3]; Laq 0.5 mg (N = 29)): 3.4%
- Common Adverse Events: Fatigue ([3]; Laq 0.5 mg (N = 29)): 6.9%
- Common Adverse Events: Headache ([3]; Laq 0.5 mg (N = 29)): 24.1%
- Common Adverse Events: Myalgia ([3]; Laq 0.5 mg (N = 29)): 0%
- Common Adverse Events: Nausea ([3]; Laq 0.5 mg (N = 29)): 3.4%
- Common Adverse Events: Pyrexia ([3]; Laq 0.5 mg (N = 29)): 24.1%
- Common Adverse Events: Rectal Haemorrhage ([3]; Laq 0.5 mg (N = 29)): 0%
- Common Adverse Events: Tachycardia ([3]; Laq 0.5 mg (N = 29)): 0%
- Common Adverse Events: Vomiting ([3]; Laq 0.5 mg (N = 29)): 17.2%
- Common Adverse Events: Abdominal Distension ([3]; Laq 1.0 mg (N = 30)): 0%
- Common Adverse Events: Abdominal Pain ([3]; Laq 1.0 mg (N = 30)): 13.3%
- Common Adverse Events: Abdominal Pain Upper ([3]; Laq 1.0 mg (N = 30)): 0%
- Common Adverse Events: Alanine Aminotransferase Increased ([3]; Laq 1.0 mg (N = 30)): 10%
- Common Adverse Events: Asthenia ([3]; Laq 1.0 mg (N = 30)): 6.7%
- Common Adverse Events: Back Pain ([3]; Laq 1.0 mg (N = 30)): 10%
- Common Adverse Events: Cough ([3]; Laq 1.0 mg (N = 30)): 10%
- Common Adverse Events: Crohn's Disease^a ([3]; Laq 1.0 mg (N = 30)): 16.7%
- Common Adverse Events: Diarrhoea ([3]; Laq 1.0 mg (N = 30)): 3.3%
- Common Adverse Events: Dizziness ([3]; Laq 1.0 mg (N = 30)): 3.3%
- Common Adverse Events: Fatigue ([3]; Laq 1.0 mg (N = 30)): 0%
- Common Adverse Events: Headache ([3]; Laq 1.0 mg (N = 30)): 26.7%
- Common Adverse Events: Myalgia ([3]; Laq 1.0 mg (N = 30)): 3.3%
- Common Adverse Events: Nausea ([3]; Laq 1.0 mg (N = 30)): 20%
- Common Adverse Events: Pyrexia ([3]; Laq 1.0 mg (N = 30)): 3.3%
- Common Adverse Events: Rectal Haemorrhage ([3]; Laq 1.0 mg (N = 30)): 3.3%
- Common Adverse Events: Tachycardia ([3]; Laq 1.0 mg (N = 30)): 0%
- Common Adverse Events: Vomiting ([3]; Laq 1.0 mg (N = 30)): 20%
- Common Adverse Events: Abdominal Distension ([3]; Laq 1.5 mg (N = 29)): 3.4%
- Common Adverse Events: Abdominal Pain ([3]; Laq 1.5 mg (N = 29)): 24.1%
- Common Adverse Events: Abdominal Pain Upper ([3]; Laq 1.5 mg (N = 29)): 6.9%
- Common Adverse Events: Alanine Aminotransferase Increased ([3]; Laq 1.5 mg (N = 29)): 0%
- Common Adverse Events: Asthenia ([3]; Laq 1.5 mg (N = 29)): 10.3%
- Common Adverse Events: Back Pain ([3]; Laq 1.5 mg (N = 29)): 13.8%
- Common Adverse Events: Cough ([3]; Laq 1.5 mg (N = 29)): 6.9%
- Common Adverse Events: Crohn's Disease^a ([3]; Laq 1.5 mg (N = 29)): 17.2%
- Common Adverse Events: Diarrhoea ([3]; Laq 1.5 mg (N = 29)): 0%
- Common Adverse Events: Dizziness ([3]; Laq 1.5 mg (N = 29)): 10.3%
- Common Adverse Events: Fatigue ([3]; Laq 1.5 mg (N = 29)): 10.3%
- Common Adverse Events: Headache ([3]; Laq 1.5 mg (N = 29)): 24.1%
- Common Adverse Events: Myalgia ([3]; Laq 1.5 mg (N = 29)): 0%
- Common Adverse Events: Nausea ([3]; Laq 1.5 mg (N = 29)): 6.9%
- Common Adverse Events: Pyrexia ([3]; Laq 1.5 mg (N = 29)): 20.7%
- Common Adverse Events: Rectal Haemorrhage ([3]; Laq 1.5 mg (N = 29)): 10.3%
- Common Adverse Events: Tachycardia ([3]; Laq 1.5 mg (N = 29)): 10.3%
- Common Adverse Events: Vomiting ([3]; Laq 1.5 mg (N = 29)): 3.4%
- Common Adverse Events: Abdominal Distension ([3]; Laq 2.0 mg (N = 29)): 3.4%
- Common Adverse Events: Abdominal Pain ([3]; Laq 2.0 mg (N = 29)): 24.1%
- Common Adverse Events: Abdominal Pain Upper ([3]; Laq 2.0 mg (N = 29)): 17.2%
- Common Adverse Events: Alanine Aminotransferase Increased ([3]; Laq 2.0 mg (N = 29)): 3.4%
- Common Adverse Events: Asthenia ([3]; Laq 2.0 mg (N = 29)): 6.9%
- Common Adverse Events: Back Pain ([3]; Laq 2.0 mg (N = 29)): 3.4%
- Common Adverse Events: Cough ([3]; Laq 2.0 mg (N = 29)): 3.4%
- Common Adverse Events: Crohn's Disease^a ([3]; Laq 2.0 mg (N = 29)): 13.8%
- Common Adverse Events: Diarrhoea ([3]; Laq 2.0 mg (N = 29)): 10.3%
- Common Adverse Events: Dizziness ([3]; Laq 2.0 mg (N = 29)): 3.4%
- Common Adverse Events: Fatigue ([3]; Laq 2.0 mg (N = 29)): 0%
- Common Adverse Events: Headache ([3]; Laq 2.0 mg (N = 29)): 44.8%
- Common Adverse Events: Myalgia ([3]; Laq 2.0 mg (N = 29)): 17.2%
- Common Adverse Events: Nausea ([3]; Laq 2.0 mg (N = 29)): 20.7%
- Common Adverse Events: Pyrexia ([3]; Laq 2.0 mg (N = 29)): 13.8%
- Common Adverse Events: Rectal Haemorrhage ([3]; Laq 2.0 mg (N = 29)): 0%
- Common Adverse Events: Tachycardia ([3]; Laq 2.0 mg (N = 29)): 3.4%
- Common Adverse Events: Vomiting ([3]; Laq 2.0 mg (N = 29)): 20.7%
- tolerability ([3]; active Crohns disease): well tolerated
- change from Baseline in biochemical or hematological parameters ([3]; any of the dose groups): no consistent trends in change from Baseline
- deaths during the study ([3]; in vivo): No subject died
- severity of most AEs ([3]; in vivo): mild or moderate
- changes in vital signs or ECGs ([3]; laquinimod dose groups): no clinically significant changes
- most common SAE: CD (exacerbation), % of patients ([3]; laquinimod groups, pooled placebo 1.6%): 3.4-6.9%
- overall incidence of AEs ([3]; laquinimod groups, pooled placebo 82.5%): 86.2-96.7%

— patent US9161935B2 (TEVA PHARMACEUTICAL INDUSTRIES, LTD., priority 2012, dated 2015)
